Data published in patent US20220289708A1, “SUBSTITUTED N-PHENYL URACILS, SALTS THEREOF AND THEIR USE AS HERBICIDAL AGENTS” (Bayer Aktiengesellschaft, priority 2019, published 2022).

Legend:
Type in all cases: in vivo
[1] = system: Stellaria media; assay: Post-emergence herbicidal action; conditions: application rate 5 g/ha, rated visually after about 3 weeks vs untreated controls
Method in brief: (§1)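 Percent activity, judged by eye about 3 weeks after treatment relative to untreated plants, ranges from 0% (as control) to 100% (plants dead). Foliar application at 20 g/ha and less was made at the one-leaf stage using a 600 l/ha aqueous spray containing 0.5% additive.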

[2] = system: Echinochloa crus-galli; assay: Post-emergence herbicidal action; conditions: rated visually after about 3 weeks vs untreated controls
Method in brief: as §1

[3] = system: Veronica persica; assay: Post-emergence herbicidal action
Method in brief: as §1

[4] = system: Digitaria sanguinalis; assay: Post-emergence herbicidal action; conditions: rated visually after about 3 weeks vs untreated controls
Method in brief: as §1

[5] = system: Pharbitis purpurea; assay: Post-emergence herbicidal action; conditions: application rate 5 g/ha, rated visually after about 3 weeks vs untreated controls
Method in brief: as §1

[6] = system: Lolium rigidum; assay: Post-emergence herbicidal action; conditions: application rate 20 g/ha, rated visually after about 3 weeks vs untreated controls
Method in brief: as §1

[7] = system: Abutilon theophrasti; assay: Post-emergence herbicidal action; conditions: rated visually after about 3 weeks vs untreated controls
Method in brief: as §1

[8] = system: Setaria viridis; assay: Post-emergence herbicidal action; conditions: rated visually after about 3 weeks vs untreated controls
Method in brief: as §1

[9] = system: Polygonum convolvulus; assay: Post-emergence herbicidal action; conditions: application rate 5 g/ha
Method in brief: as §1

[10] = system: Matricaria inodora; assay: Post-emergence herbicidal action; conditions: rated visually after about 3 weeks vs untreated controls
Method in brief: as §1

[11] = system: Alopecurus myosuroides; assay: Post-emergence herbicidal action; conditions: rated visually after about 3 weeks vs untreated controls
Method in brief: as §1

[12] = system: Viola tricolor; assay: Post-emergence herbicidal action; conditions: application rate 5 g/ha
Method in brief: as §1

[13] = system: Hordeum murinum; assay: Post-emergence herbicidal action; conditions: application rate 20 g/ha
Method in brief: as §1

[14] = system: Amaranthus retroflexus; assay: Post-emergence herbicidal action; conditions: rated visually after about 3 weeks vs untreated controls
Method in brief: as §1

[15] = system: Oryza sativa; assay: Post-emergence crop plant compatibility; conditions: application rate 5 g/ha
Experimental: (§2) a. Post-Emergence Herbicidal Action and Crop Plant Compatibility
(§3) Seeds of monocotyledonous and dicotyledonous weeds and crop plants were placed in sandy loam in plastic or wood-fiber pots, covered with soil and cultivated in a greenhouse under controlled growth conditions. 2 to 3 weeks after sowing, the test plants were treated at the one-leaf stage. The compounds of the invention, formulated in the form of wettable powders (WP) or as emulsion concentrates (EC), were then sprayed onto the green parts of the plants as aqueous suspension or emulsion with addition of 0.5% additive at a water application rate of 600 l/ha (converted). After the test plants had been kept in the greenhouse under optimum growth conditions for about 3 weeks, the activity of the preparations was rated visually in comparison to untreated controls. For example, 100% activity=the plants have died, 0% activity=like control plants.
(§4) Tables A16 to A19 below show the crop plant compatibilities of selected compounds of the general formula (I) according to Tables I.1 to I.36 at an application rate corresponding to 5 g/ha or 20 g/ha, which were obtained in experiments according to the experimental procedure mentioned above. Here, the observed effects on selected crop plants are stated in comparison to the untreated controls (values in %).

[16] = system: Triticum aestivum; assay: Post-emergence crop plant compatibility
Experimental: as §2, §3, §4

[17] = system: Echinochloa crus-galli; assay: Pre-emergence herbicidal action; conditions: application rate 20 g/ha
From the text: (§5) B. Pre-Emergence Herbicidal Action and Crop Plant Compatibility Seeds of monocotyledonous and dicotyledonous weed plants and crop plants were placed in plastic or organic planting pots and covered with soil. The compounds of the invention, formulated in the form of wettable powders (WP) or as emulsion concentrates (EC), were then applied to the surface of the covering soil as aqueous suspension or emulsion with addition of 0.5% additive at a water application rate equivalent to 600 l/ha (converted). After the treatment, the pots were placed in a greenhouse and kept under good growth conditions for the test plants. After about 3 weeks, the effect of the preparations was scored visually in comparison with untreated controls as percentages. For example, 100% activity=the plants have died, 0% activity=like control plants. Tables B1 to B13 below show the effects of selected compounds of the general formula (I) according to Tables I.1 to I.36 on various harmful plants and at an application rate corresponding to 80 g/ha or less, which were obtained by the experimental procedure mentioned above.

[18] = system: Veronica persica; assay: Pre-emergence herbicidal action; conditions: application rate 20 g/ha
From the text: as §5

[19] = system: Digitaria sanguinalis; assay: Pre-emergence herbicidal action; conditions: application rate 20 g/ha
From the text: as §5

[20] = system: Pharbitis purpurea; assay: Pre-emergence herbicidal action; conditions: application rate 20 g/ha
From the text: as §5

[21] = system: Lolium rigidum; assay: Pre-emergence herbicidal action; conditions: application rate 80 g/ha
From the text: as §5

[22] = system: Abutilon theophrasti; assay: Pre-emergence herbicidal action; conditions: application rate 20 g/ha
From the text: as §5

[23] = system: Setaria viridis; assay: Pre-emergence herbicidal action; conditions: application rate 20 g/ha
From the text: as §5

[24] = system: Polygonum convolvulus; assay: Pre-emergence herbicidal action; conditions: application rate 20 g/ha
From the text: as §5

[25] = system: Matricaria inodora; assay: Pre-emergence herbicidal action; conditions: application rate 20 g/ha
From the text: as §5

[26] = system: Alopecurus myosuroides; assay: Pre-emergence herbicidal action; conditions: application rate 80 g/ha
From the text: as §5

[27] = system: Viola tricolor; assay: Pre-emergence herbicidal action; conditions: application rate 20 g/ha
From the text: as §5

[28] = system: Amaranthus retroflexus; assay: Pre-emergence herbicidal action; conditions: application rate 20 g/ha
From the text: as §5

[29] = system: Avena fatua; assay: Pre-emergence herbicidal action; conditions: application rate 80 g/ha
From the text: as §5

[30] = system: Avena fatua; assay: Post-emergence herbicidal action; conditions: application rate 20 g/ha, rated visually after about 3 weeks vs untreated controls
Method in brief: as §1

Compound | Stellaria media (efficacy in %) [1] | Echinochloa crus-galli (efficacy in %) ([2]; application rate 5 g/ha) | Veronica persica (efficacy in %) ([3]; application rate 20 g/ha) | Digitaria sanguinalis (efficacy in %) ([4]; application rate 5 g/ha) | Pharbitis purpurea (efficacy in %) [5] | Lolium rigidum (efficacy in %) [6] | Abutilon theophrasti (efficacy in %) ([7]; application rate 5 g/ha) | Setaria viridis (efficacy in %) ([8]; application rate 5 g/ha) | Polygonum convolvulus (efficacy in %) [9] | Matricaria inodora (efficacy in %) ([10]; application rate 20 g/ha) | Alopecurus myosuroides (efficacy in %) ([11]; application rate 20 g/ha) | Viola tricolor (efficacy in %) [12] | Hordeum murinum (efficacy in %) [13] | Amaranthus retroflexus (efficacy in %) ([14]; application rate 5 g/ha) | Oryza sativa (efficacy in %) [15] | Echinochloa crus-galli (efficacy in %) ([2]; application rate 20 g/ha) | Digitaria sanguinalis (efficacy in %) ([4]; application rate 20 g/ha) | Matricaria inodora (efficacy in %) ([10]; application rate 5 g/ha) | Alopecurus myosuroides (efficacy in %) ([11]; application rate 5 g/ha) | Veronica persica (efficacy in %) ([3]; application rate 5 g/ha) | further results
Cn1c(C(F)(F)F)cc(=O)n(-c2cc(Sc3cccnc3SCC(=O)OCC3CCOC3)c(Cl)cc2F)c1=O (stereo not shown) [I.10-72] | 90% | 100% | 80% | 80% | 100% | 80% | 100% | 90% | 100% | 100% | 80% | 100% | 80% | 100% | 20% |  |  |  |  |  | Triticum aestivum (efficacy in %) ([16]; application rate 20 g/ha): 20%
Cn1c(C(F)(F)F)cc(=O)n(-c2cc(Sc3cccnc3SCC(=O)OC3COC3)c(Cl)cc2F)c1=O [I.10-115] | 100% |  | 100% |  | 100% |  | 100% | 100% | 100% |  | 80% | 100% | 80% | 100% | 20% | 100% | 100% | 90% |  |  | 
Cn1c(C(F)(F)F)cc(=O)n(-c2cc(Sc3cccnc3SCC(=O)OCC#N)c(Cl)cc2F)c1=O [I.10-176] | 100% | 100% | 80% |  | 90% |  |  | 100% | 100% | 100% |  | 100% | 80% |  | 20% |  | 100% |  | 80% |  | Abutilon theophrasti (efficacy in %) ([7]; application rate 20 g/ha): 100%; Amaranthus retroflexus (efficacy in %) ([14]; application rate 20 g/ha): 100%
CSCCOC(=O)COc1ncccc1Oc1cc(-n2c(=O)cc(C(F)(F)F)n(C)c2=O)c(F)cc1Cl [I.15-31] |  |  |  | 100% | 100% |  | 100% |  |  |  |  |  |  | 100% | 20% |  |  | 100% |  | 100% | Echinochloa crus-galli (efficacy in %) [17]: 100%; Veronica persica (efficacy in %) [18]: 100%; Digitaria sanguinalis (efficacy in %) [19]: 100%; Pharbitis purpurea (efficacy in %) [20]: 100%; Lolium rigidum (efficacy in %) [21]: 100%; Abutilon theophrasti (efficacy in %) [22]: 100%; Setaria viridis (efficacy in %) [23]: 100%; Polygonum convolvulus (efficacy in %) [24]: 100%; Matricaria inodora (efficacy in %) [25]: 100%; Alopecurus myosuroides (efficacy in %) [26]: 100%; Viola tricolor (efficacy in %) [27]: 100%; Amaranthus retroflexus (efficacy in %) [28]: 100%; Avena fatua (efficacy in %) [29]: 100%
Cn1c(C(F)(F)F)cc(=O)n(-c2cc(Oc3cccnc3OCC(=O)OC3COC3)c(Cl)cc2F)c1=O [I.15-115] | 100% |  |  |  | 100% | 90% | 100% |  | 100% |  |  | 100% | 100% | 100% |  | 100% | 100% | 100% | 80% | 100% | Setaria viridis (efficacy in %) ([8]; application rate 20 g/ha): 100%; Avena fatua (efficacy in %) [30]: 90%; Triticum aestivum (efficacy in %) ([16]; application rate 5 g/ha): 20%
Cn1c(C(F)(F)F)cc(=O)n(-c2cc(Oc3cccnc3OCC(=O)OCc3ccncc3)c(Cl)cc2F)c1=O [I.15-288] |  | 100% |  |  | 100% |  | 100% |  |  |  |  |  |  | 100% | 0% |  |  | 90% |  | 100% | Echinochloa crus-galli (efficacy in %) [17]: 80%; Veronica persica (efficacy in %) [18]: 100%; Digitaria sanguinalis (efficacy in %) [19]: 100%; Pharbitis purpurea (efficacy in %) [20]: 100%; Lolium rigidum (efficacy in %) [21]: 100%; Abutilon theophrasti (efficacy in %) [22]: 100%; Setaria viridis (efficacy in %) [23]: 100%; Polygonum convolvulus (efficacy in %) [24]: 100%; Matricaria inodora (efficacy in %) [25]: 100%; Alopecurus myosuroides (efficacy in %) [26]: 100%; Viola tricolor (efficacy in %) [27]: 100%; Amaranthus retroflexus (efficacy in %) [28]: 100%; Avena fatua (efficacy in %) [29]: 100%
